For test [1], the target named is T1, human complement factor D (Homo sapiens, UniProt P00746).
T1 construct: purchased R&D Systems 1824-SE
Description: In vitro enzyme inhibition (Z-Lys-SBzl/DTNB absorbance assay). The following applies: Complement Factor D (R&D Systems), substrate Z-Lys-SBzl, A405 nm; read-out: CFD IC50. The format is biochemical. Put shortly: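 Factor D (6.25 ng/μL before addition) preincubated 5 min RT with compound (8 points from 50 μM, 6-fold, 0.5% DMSO final) in 50 mM Tris/HCl pH 7.5, 1 M NaCl, then Z-Lys-SBzl/DTNB added (200 μM each before addition). A405 read kinetically every 30 s for 60 min; IC50 from variable-slope fit, controls with and without enzyme.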

The subject of test [2] is alternative pathway (AP) hemolytic activity. Briefly: AP hemolysis inhibition assay. To be noted: Erythrocyte, 1 h; Normal Human Serum, chicken or rabbit erythrocytes, 60 min at 37° C., OD 414 nm. Format: cell-based. The method, then: The ability of the compounds disclosed herein to inhibit alternative pathway (AP) hemolytic activity was determined. Red blood cells (RBC), chicken or rabbit erythrocyctes (SbjBio), were washed three time using assay buffer containing 0.1% gelatin, 5 mM Veronal, 145 mM NaCl, 0.025% NaN3, 10 mM Mg-EGTA pH 7.3. In 100 μL reaction system, 1300 to 1500 ng/μL final concentration of Normal Human Serum (CompTech) was incubated with compound for 15 min at 37° C. Then 2×10^6 cells/well of chicken or rabbit erythrocytes in assay buffer were added and incubated for an additional 60 min at 37° C. Positive control (100% lysis) consists of serum and RBC, and negative control (0% lysis) consists of assay buffer and RBC only. Samples were centrifuged at 2000 g for 5 min, and supernatants collected. Optical density of the supernatant is monitored at 414 nm using Synergy 2 (BioTek). Percentage lysis in each sample is calculated relative to positive control (100% lysis).
Table 3 discloses the inhibitory activity of the compounds provided herein in the hemolysis assay.

The structures appear in SMILES notation.

As usually defined, the IC50 is the concentration at which inhibition is half-maximal. In general, EC50 refers to the concentration giving half of the maximal effect.

T1 sequence (P00746 26-253): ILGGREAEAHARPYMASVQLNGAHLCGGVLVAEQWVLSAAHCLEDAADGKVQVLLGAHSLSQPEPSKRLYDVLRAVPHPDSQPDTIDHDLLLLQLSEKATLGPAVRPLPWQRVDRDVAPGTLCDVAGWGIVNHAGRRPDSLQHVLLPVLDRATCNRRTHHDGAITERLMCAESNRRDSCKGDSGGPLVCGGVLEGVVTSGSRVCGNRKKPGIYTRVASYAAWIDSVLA

Regarding `COC(=O)c1ccc2c(C(N)=O)nn(CC(=O)N3[C@@H]4CC[C@@H](C4)[C@H]3C(=O)Nc3cccc(Cl)n3)c2c1` [Example 122, methyl 3-carbamoyl-1-(2-((1R,3S,4S)-3-((6-chloropyridin-2-yl)carbamoyl)-2-azabicyclo[2.2.1]heptan-2-yl)-2-oxoethyl)-1H-indazole-6-carboxylate], the IC50 in test [1] fell in the range of 100 to 1000 nM. Also, the EC50 in test [2] lay in the range of 100 to 1000 nM.

For `NC(=O)c1nn(CC(=O)N2[C@@H]3CC[C@@H](C3)[C@H]2C(=O)Nc2cccc(Cl)n2)c2cc(N)ccc12` [Example 93, 6-amino-1-(2-((1R,3S,4S)-3-((6-chloropyridin-2-yl)carbamoyl)-2-azabicyclo[2.2.1]heptan-2-yl)-2-oxoethyl)-1H-indazole-3-carboxamide 2,2,2-trifluoroacetate], in test [1], the IC50 is 100 to 1000 nM. In addition, the EC50 in test [2] was in the range of 100 to 1000 nM.

Regarding `NC(=O)c1nn(CC(=O)N2[C@@H]3CC[C@@H](C3)[C@H]2C(=O)Nc2cncc(Cl)n2)c2ccccc12` [Example 59, 1-(2-((1R,3S,4S)-3-((6-chloropyrazin-2-yl)carbamoyl)-2-azabicyclo[2.2.1]heptan-2-yl)-2-oxoethyl)-1H-indazole-3-carboxamide], in test [1], the IC50 was less than 100 nM. The EC50 in test [2] lay within 100 to 1000 nM.

Turning to `Cc1ccc2c(c1)c(C(N)=O)nn2CC(=O)N1[C@H](C(=O)Nc2cccc(Cl)n2)C[C@@H]2CCC[C@@H]21` [Example 168, 1-(2-((2S,3aS,6aS)-2-((6-chloropyridin-2-yl)carbamoyl)hexahydrocyclopenta[b]pyrrol-1(2H)-yl)-2-oxoethyl)-5-methy1-1H-indazole-3-carboxamide], the IC50 in test [1] was less than 100 nM. For the same compound, the EC50 in test [2] lay in the range of 100 to 1000 nM.

For `NC(=O)c1nn(CC(=O)N2[C@@H]3CC[C@@H](C3)[C@H]2C(=O)Nc2cccc(Cl)n2)c2cc(CO)ccc12` [Example 125, 1-(2-((1R,3S,4S)-3-((6-chloropyridin-2-yl)carbamoyl)-2-azabicyclo[2.2.1]heptan-2-yl)-2-oxoethyl)-6-(hydroxymethyl)-1H-indazole-3-carboxamide], in test [1], the IC50 was 100 to 1000 nM. For the same compound, the EC50 in test [2] is 100 to 1000 nM.

On to `Cc1cc(Cl)nc(NC(=O)[C@@H]2[C@H]3CC[C@H](C3)N2C(=O)Cn2nc(C(N)=O)c3ccccc32)c1` [Example 77, 1-(2-((1R,3S,4S)-3-((6-chloro-4-methylpyridin-2-yl)carbamoyl)-2-azabicyclo[2.2.1]heptan-2-yl)-2-oxoethyl)-1H-indazole-3-carboxamide], for which, in test [1], the IC50 lay in the range of 100 to 1000 nM. In addition, in test [2], the EC50 was 100 to 1000 nM.

Regarding `NC(=O)c1nn(CC(=O)N2[C@@H]3CC[C@@H](C3)[C@H]2C(=O)Nc2cccc(Cl)n2)c2cc(F)ccc12` [Example 71, 1-(2-((1R,3S,4S)-3-((6-chloropyridin-2-yl)carbamoyl)-2-azabicyclo[2.2.1]heptan-2-yl)-2-oxoethyl)-6-fluoro-1H-indazole-3-carboxamide], the IC50 in test [1] is less than 100 nM. Also, in test [2], the EC50 was in the range of 100 to 1000 nM.

Consider `NC(=O)c1nn(CC(=O)N2CC[C@H]2C(=O)NCc2cccc(Cl)c2F)c2cnccc12` [Example 189, (S)-1-(2-(2-((3-chloro-2-fluorobenzyl)carbamoyl)azetidin-1-yl)-2-oxoethyl)-1H-pyrazolo[3,4-c]pyridine-3-carboxamide], for which the IC50 in test [1] was less than 100 nM. Also, the EC50 in test [2] fell in the range of 100 to 1000 nM.

For the compound `NC(=O)c1nn(CC(=O)N2[C@@H]3CC[C@@H](C3)[C@H]2C(=O)Nc2cccc(Cl)c2F)c2ccccc12` [Example 18, 1-(2-((1R,3S,4S)-3-((3-chloro-2-fluorophenyl)carbamoyl)-2-azabicyclo[2.2.1]heptan-2-yl)-2-oxoethyl)-1H-indazole-3-carboxamide], the IC50 in test [1] is 100 to 1000 nM. Besides, the EC50 in test [2] was 1000 to 10000 nM.

As to `NC(=O)c1nn(CC(=O)N2[C@@H]3CC[C@@H](C3)[C@H]2C(=O)Nc2cccc(Cl)n2)c2cc(C(=O)O)ccc12` [Example 123, 3-carbamoyl-1-(2-((1R,3S,4S)-3-((6-chloropyridin-2-yl)carbamoyl)-2-azabicyclo[2.2.1]heptan-2-yl)-2-oxoethyl)-1H-indazole-6-carboxylic acid], the IC50 in test [1] is less than 100 nM. In test [2], the EC50 was less than 100 nM.

For the compound `NC(=O)c1nn(CC(=O)N2CC[C@H]2C(=O)NCc2cccc(Cl)c2F)c2ccccc12` [Example 185, (S)-1-(2-(2-((3-chloro-2-fluorobenzyl)carbamoyl)azetidin-1-yl)-2-oxoethyl)-1H-indazole-3-carboxamide], the IC50 in test [1] was less than 100 nM. For the same compound, the EC50 in test [2] was less than 100 nM.

As for `NC(=O)c1nn(CC(=O)N2[C@H](C(=O)NCc3cccc(Cl)c3F)C[C@@H]3CCC[C@@H]32)c2ccccc12` [Example 157, 1-(2-((2S,3aS,6aS)-2-((3-chloro-2-fluorobenzyl)carbamoyl)hexahydrocyclopenta[b]pyrrol-1(2H)-yl)-2-oxoethyl)-1H-indazole-3-carboxamide], the 50% inhibitory concentration (IC50) in test [1] was less than 100 nM. For the same compound, the EC50 in test [2] is 100 to 1000 nM.

Regarding `CC(=O)c1nn(CC(=O)N2[C@@H]3CC[C@@H](C3)[C@H]2C(=O)Nc2cccc(Cl)n2)c2ccccc12` [Example 80, (1R,3S,4S)-2-(2-(3-acetyl-1H-indazol-1-yl)acetyl)-N-(6-chloropyridin-2-yl)-2-azabicyclo[2.2.1]heptane-3-carboxamide], the IC50 in test [1] is less than 100 nM. Also, the EC50 in test [2] is 100 to 1000 nM.

As for `NC(=O)c1nn(CC(=O)N2[C@H](C(=O)Nc3cccc(Cl)n3)C[C@@H]3CCC[C@@H]32)c2ccccc12` [Example 159, 1-(2-((2S,3aS,6aS)-2-((6-chloropyridin-2-yl)carbamoyl)hexahydrocyclopenta[b]pyrrol-1(2H)-yl)-2-oxoethyl)-1H-indazole-3-carboxamide], the IC50 in test [1] was in the range of 100 to 1000 nM. In addition, the EC50 in test [2] was in the range of 100 to 1000 nM.

Take `NC(=O)c1nn(CC(=O)N2CCCC[C@H]2C(=O)Nc2cccc(Cl)n2)c2ccccc12` [Example 21, (S)-1-(2-(2-((6-chloropyridin-2-yl)carbamoyl)piperidin-1-yl)-2-oxoethyl)-1H-indazole-3-carboxamide]: the IC50 in test [1] was in the range of 100 to 1000 nM. Further, the EC50 in test [2] was in the range of 1000 to 10000 nM.

For the compound `NC(=O)c1nn(CC(=O)N2[C@@H]3CC[C@@H](C3)[C@H]2C(=O)Nc2cccc(Br)n2)c2ccccc12` [Example 65, 1-(2-((1R,3S,4S)-3-((6-bromopyridin-2-yl)carbamoyl)-2-azabicyclo[2.2.1]heptan-2-yl)-2-oxoethyl)-1H-indazole-3-carboxamide], the IC50 in test [1] was less than 100 nM. Also, the EC50 in test [2] was 100 to 1000 nM.

Take `NC(=O)c1nn(CC(=O)N2C(C(=O)NCc3cccc(Cl)c3F)[C@@H]3C[C@@H](O)[C@H]2[C@H]3O)c2ccccc12` (stereo partly drawn) [Example 152, 1-(2-((1S,4S,6R,7S)-3-((3-chloro-2-fluorobenzyl)carbamoyl)-6,7-dihydroxy-2-azabicyclo[2.2.1]heptan-2-yl)-2-oxoethyl)-1H-indazole-3-carboxamide]: in test [1], the IC50 lay within 100 to 1000 nM. Also, the EC50 in test [2] lay within 100 to 1000 nM.

`NC(=O)n1cc(NC(=O)N2[C@@H]3CC[C@@H](C3)[C@H]2C(=O)Nc2cccc(Cl)n2)c2ccccc21` [Example 156, (1R,3S,4S)-N2-(1-carbamoyl-1H-indol-3-yl)-N3-(6-chloropyridin-2-yl)-2-azabicyclo[2.2.1]heptane-2,3-dicarboxamide]: in test [1], the IC50 lay within 100 to 1000 nM. Also, in test [2], the EC50 is 100 to 1000 nM.
